Residues, ends and D or L forms follow the SMILES beside them.

For orientation: EC50 means the concentration at which the effect is half-maximal. As usually defined, the Tm is the temperature at which the thermal transition is half complete.

Assay [1] deals with Human immunodeficiency virus 1. Nature of the assay: Antiviral activity against HIV1 NL4-3 harboring gp41 D36G mutant infected in human HeLa cells expressing CD4-LTR-beta-gal assessed as inhibition of viral replication after 48 hrs by MAGI assay. The format is functional, organism-based.
In assay [2] the test system is Human immunodeficiency virus 1. Kind of assay: Binding affinity to HIV1 His-tagged N-terminal heptad repeat of envelope glycoprotein gp41 assessed as recovery of N54-drug complex after 2 hrs by LC-MS analysis. Also on record: concentration or dose not given beside the values.
The subject of assay [3] is Human immunodeficiency virus 1. Nature of the assay: Thermal stability of HIV1 envelope glycoprotein gp41 His-tagged N-terminal heptad repeat N54-drug complex assessed as thermal unfolding transition state by measuring molar ellipticity at 4 to 90 degC by circular dichroic spectra analysis.

As to `CC[C@H](C)[C@H](NC(=O)[C@H](CC(C)C)NC(=O)[C@H](CCC(=O)O)NC(=O)[C@H](CCC(=O)O)NC(=O)[C@@H](NC(=O)[C@H](CC(C)C)NC(=O)[C@H](CO)NC(=O)[C@@H](NC(=O)[C@H](Cc1ccc(O)cc1)NC(C)=O)[C@@H](C)O)[C@@H](C)CC)C(=O)N[C@@H](CCCCN)C(=O)N[C@@H](CCCCN)C(=O)N[C@@H](CCC(=O)O)C(=O)N[C@@H](CCC(=O)O)C(=O)N[C@@H](CCC(=O)O)C(=O)N[C@@H](CCC(N)=O)C(=O)N[C@@H](CCC(N)=O)C(=O)N[C@@H](CCCCN)C(=O)N[C@@H](CCCCN)C(=O)N[C@@H](CC(N)=O)C(=O)N[C@@H](CCC(=O)O)C(=O)N[C@@H](CCC(=O)O)C(=O)N[C@@H](CCC(=O)O)C(=O)N[C@@H](CC(C)C)C(=O)N[C@@H](CCCCN)C(=O)N[C@@H](CCCCN)C(=O)N[C@@H](CC(C)C)C(=O)N[C@@H](CCC(=O)O)C(=O)N[C@@H](CCC(=O)O)C(=O)N[C@@H](Cc1c[nH]c2ccccc12)C(=O)N[C@@H](C)C(=O)N[C@@H](CCCCN)C(=O)N[C@@H](CCCCN)C(=O)N[C@@H](Cc1c[nH]c2ccccc12)C(=O)N[C@@H](CC(N)=O)C(=O)N[C@@H](Cc1c[nH]c2ccccc12)C(=O)N[C@@H](Cc1ccccc1)C(N)=O` (Ac-YTSLIEELIKKEEEQQKKNEEELKKLEEWAKKWNWF-NH2), the EC50 in assay [1] stood at 230 nM. For the same compound, in assay [2], the Activity came to 2.2%. Further, the Tm in assay [3] worked out at 61 °C.

Regarding `CC[C@H](C)[C@H](NC(=O)[C@H](CC(C)C)NC(=O)[C@H](CCC(=O)O)NC(=O)[C@H](CCC(=O)O)NC(=O)[C@@H](NC(=O)[C@H](CC(C)C)NC(=O)[C@H](CO)NC(=O)[C@@H](NC(=O)[C@H](Cc1ccc(O)cc1)NC(C)=O)[C@@H](C)O)[C@@H](C)CC)C(=O)N[C@@H](CCCCN)C(=O)N[C@@H](CCCCN)C(=O)N[C@@H](CC(N)=O)C(=O)N[C@@H](CCC(=O)O)C(=O)N[C@@H](CCC(=O)O)C(=O)N[C@@H](CCC(N)=O)C(=O)N[C@@H](CCC(N)=O)C(=O)N[C@@H](CCCCN)C(=O)N[C@@H](CCCCN)C(=O)N[C@@H](CC(N)=O)C(=O)N[C@@H](CCC(=O)O)C(=O)N[C@@H](CCC(=O)O)C(=O)N[C@@H](CCC(=O)O)C(=O)N[C@@H](CC(C)C)C(=O)N[C@@H](CCCCN)C(=O)N[C@@H](CCCCN)C(=O)N[C@@H](CC(C)C)C(=O)N[C@@H](CCC(=O)O)C(=O)N[C@@H](CCC(=O)O)C(=O)N[C@@H](Cc1c[nH]c2ccccc12)C(=O)N[C@@H](C)C(=O)N[C@@H](CCCCN)C(=O)N[C@@H](CCCCN)C(=O)N[C@@H](Cc1c[nH]c2ccccc12)C(=O)N[C@@H](CC(N)=O)C(=O)N[C@@H](Cc1c[nH]c2ccccc12)C(=O)N[C@@H](Cc1ccccc1)C(N)=O` (Ac-YTSLIEELIKKNEEQQKKNEEELKKLEEWAKKWNWF-NH2), the EC50 in assay [1] is 4.8 nM. Moreover, the Activity in assay [2] is 3.5%. The Tm in assay [3] amounted to 65.7 °C.

As for `CC[C@H](C)[C@H](NC(=O)[C@H](CC(C)C)NC(=O)[C@H](CCC(=O)O)NC(=O)[C@H](CCC(=O)O)NC(=O)[C@@H](NC(=O)[C@H](CC(C)C)NC(=O)[C@H](CO)NC(=O)[C@@H](NC(=O)[C@H](Cc1ccc(O)cc1)NC(C)=O)[C@@H](C)O)[C@@H](C)CC)C(=O)N[C@@H](CCCCN)C(=O)N[C@@H](CCCCN)C(=O)N[C@@H](CO)C(=O)N[C@@H](CCC(=O)O)C(=O)N[C@@H](CCC(=O)O)C(=O)N[C@@H](CCCCN)C(=O)N[C@@H](CCC(N)=O)C(=O)N[C@@H](CCCCN)C(=O)N[C@@H](CCCCN)C(=O)N[C@@H](CC(N)=O)C(=O)N[C@@H](CCC(=O)O)C(=O)N[C@@H](CCC(=O)O)C(=O)N[C@@H](CCC(=O)O)C(=O)N[C@@H](CC(C)C)C(=O)N[C@@H](CCCCN)C(=O)N[C@@H](CCCCN)C(=O)N[C@@H](CC(C)C)C(=O)N[C@@H](CCC(=O)O)C(=O)N[C@@H](CCC(=O)O)C(=O)N[C@@H](Cc1c[nH]c2ccccc12)C(=O)N[C@@H](C)C(=O)N[C@@H](CCCCN)C(=O)N[C@@H](CCCCN)C(=O)N[C@@H](Cc1c[nH]c2ccccc12)C(=O)N[C@@H](CC(N)=O)C(=O)N[C@@H](Cc1c[nH]c2ccccc12)C(=O)N[C@@H](Cc1ccccc1)C(N)=O` (Ac-YTSLIEELIKKSEEKQKKNEEELKKLEEWAKKWNWF-NH2), in assay [1], the EC50 is 3.8 nM. Moreover, the Activity in assay [2] came to 4.8%. In assay [3], the Tm is 65.3 °C.

On to `CC[C@H](C)[C@H](NC(=O)[C@H](CCC(=O)O)NC(=O)[C@H](CCC(=O)O)NC(=O)[C@H](CO)NC(=O)[C@H](CCCCN)NC(=O)[C@H](CCCCN)NC(=O)[C@@H](NC(=O)[C@H](CC(C)C)NC(=O)[C@H](CCC(=O)O)NC(=O)[C@H](CCC(=O)O)NC(=O)[C@@H](NC(=O)[C@H](CC(C)C)NC(=O)[C@H](CO)NC(=O)[C@@H](NC(=O)[C@H](Cc1ccc(O)cc1)NC(C)=O)[C@@H](C)O)[C@@H](C)CC)[C@@H](C)CC)C(=O)N[C@@H](CCC(N)=O)C(=O)N[C@@H](CCCCN)C(=O)N[C@@H](CCCCN)C(=O)N[C@@H](CC(N)=O)C(=O)N[C@@H](CCC(=O)O)C(=O)N[C@@H](CCC(=O)O)C(=O)N[C@@H](CCC(=O)O)C(=O)N[C@@H](CC(C)C)C(=O)N[C@@H](CCCCN)C(=O)N[C@@H](CCCCN)C(=O)N[C@@H](CC(C)C)C(=O)N[C@@H](CCC(=O)O)C(=O)N[C@@H](CCC(=O)O)C(=O)N[C@@H](Cc1c[nH]c2ccccc12)C(=O)N[C@@H](C)C(=O)N[C@@H](CCCCN)C(=O)N[C@@H](CCCCN)C(=O)N[C@@H](Cc1c[nH]c2ccccc12)C(=O)N[C@@H](CC(N)=O)C(=O)N[C@@H](Cc1c[nH]c2ccccc12)C(=O)N[C@@H](Cc1ccccc1)C(N)=O` (Ac-YTSLIEELIKKSEEIQKKNEEELKKLEEWAKKWNWF-NH2), for which, in assay [1], the EC50 was 0.8 nM. Besides, the Activity in assay [2] was found to be 10.4%. In addition, the Tm in assay [3] is 74 °C.

Regarding `CC[C@H](C)[C@H](NC(=O)[C@H](CC(C)C)NC(=O)[C@H](CCC(=O)O)NC(=O)[C@H](CCC(=O)O)NC(=O)[C@@H](NC(=O)[C@H](CC(C)C)NC(=O)[C@H](CO)NC(=O)[C@@H](NC(=O)[C@H](Cc1ccc(O)cc1)NC(C)=O)[C@@H](C)O)[C@@H](C)CC)C(=O)N[C@@H](CCCCN)C(=O)N[C@@H](CCCCN)C(=O)N[C@@H](CCCCN)C(=O)N[C@@H](CCC(=O)O)C(=O)N[C@@H](CCC(=O)O)C(=O)N[C@@H](CCC(N)=O)C(=O)N[C@@H](CCC(N)=O)C(=O)N[C@@H](CCCCN)C(=O)N[C@@H](CCCCN)C(=O)N[C@@H](CC(N)=O)C(=O)N[C@@H](CCC(=O)O)C(=O)N[C@@H](CCC(=O)O)C(=O)N[C@@H](CCC(=O)O)C(=O)N[C@@H](CC(C)C)C(=O)N[C@@H](CCCCN)C(=O)N[C@@H](CCCCN)C(=O)N[C@@H](CC(C)C)C(=O)N[C@@H](CCC(=O)O)C(=O)N[C@@H](CCC(=O)O)C(=O)N[C@@H](Cc1c[nH]c2ccccc12)C(=O)N[C@@H](C)C(=O)N[C@@H](CCCCN)C(=O)N[C@@H](CCCCN)C(=O)N[C@@H](Cc1c[nH]c2ccccc12)C(=O)N[C@@H](CC(N)=O)C(=O)N[C@@H](Cc1c[nH]c2ccccc12)C(=O)N[C@@H](Cc1ccccc1)C(N)=O` (Ac-YTSLIEELIKKKEEQQKKNEEELKKLEEWAKKWNWF-NH2), the EC50 in assay [1] came out at 330 nM. The Activity in assay [2] came out at 0.8%. The Tm in assay [3] came to 50.6 °C.

For the compound `CC[C@H](C)[C@H](NC(=O)[C@H](CC(C)C)NC(=O)[C@H](CCC(=O)O)NC(=O)[C@H](CCC(=O)O)NC(=O)[C@@H](NC(=O)[C@H](CC(C)C)NC(=O)[C@H](CO)NC(=O)[C@@H](NC(=O)[C@H](Cc1ccc(O)cc1)NC(C)=O)[C@@H](C)O)[C@@H](C)CC)C(=O)N[C@@H](CCCCN)C(=O)N[C@@H](CCCCN)C(=O)N[C@@H](Cc1ccc(O)cc1)C(=O)N[C@@H](CCC(=O)O)C(=O)N[C@@H](CCC(=O)O)C(=O)N[C@@H](CCC(N)=O)C(=O)N[C@@H](CCC(N)=O)C(=O)N[C@@H](CCCCN)C(=O)N[C@@H](CCCCN)C(=O)N[C@@H](CC(N)=O)C(=O)N[C@@H](CCC(=O)O)C(=O)N[C@@H](CCC(=O)O)C(=O)N[C@@H](CCC(=O)O)C(=O)N[C@@H](CC(C)C)C(=O)N[C@@H](CCCCN)C(=O)N[C@@H](CCCCN)C(=O)N[C@@H](CC(C)C)C(=O)N[C@@H](CCC(=O)O)C(=O)N[C@@H](CCC(=O)O)C(=O)N[C@@H](Cc1c[nH]c2ccccc12)C(=O)N[C@@H](C)C(=O)N[C@@H](CCCCN)C(=O)N[C@@H](CCCCN)C(=O)N[C@@H](Cc1c[nH]c2ccccc12)C(=O)N[C@@H](CC(N)=O)C(=O)N[C@@H](Cc1c[nH]c2ccccc12)C(=O)N[C@@H](Cc1ccccc1)C(N)=O` (Ac-YTSLIEELIKKYEEQQKKNEEELKKLEEWAKKWNWF-NH2), the EC50 in assay [1] amounted to 5 nM. In addition, in assay [2], the Activity is 4.7%. In addition, the midpoint of thermal melting (Tm) in assay [3] stood at 61.1 °C.

In the case of `CC[C@H](C)[C@H](NC(=O)[C@H](CC(C)C)NC(=O)[C@H](CCC(=O)O)NC(=O)[C@H](CCC(=O)O)NC(=O)[C@@H](NC(=O)[C@H](CC(C)C)NC(=O)[C@H](CO)NC(=O)[C@@H](NC(=O)[C@H](Cc1ccc(O)cc1)NC(C)=O)[C@@H](C)O)[C@@H](C)CC)C(=O)N[C@@H](CCCCN)C(=O)N[C@@H](CCCCN)C(=O)N[C@@H](CO)C(=O)N[C@@H](CCC(=O)O)C(=O)N[C@@H](CCC(=O)O)C(=O)N[C@@H](Cc1ccccc1)C(=O)N[C@@H](CCC(N)=O)C(=O)N[C@@H](CCCCN)C(=O)N[C@@H](CCCCN)C(=O)N[C@@H](CC(N)=O)C(=O)N[C@@H](CCC(=O)O)C(=O)N[C@@H](CCC(=O)O)C(=O)N[C@@H](CCC(=O)O)C(=O)N[C@@H](CC(C)C)C(=O)N[C@@H](CCCCN)C(=O)N[C@@H](CCCCN)C(=O)N[C@@H](CC(C)C)C(=O)N[C@@H](CCC(=O)O)C(=O)N[C@@H](CCC(=O)O)C(=O)N[C@@H](Cc1c[nH]c2ccccc12)C(=O)N[C@@H](C)C(=O)N[C@@H](CCCCN)C(=O)N[C@@H](CCCCN)C(=O)N[C@@H](Cc1c[nH]c2ccccc12)C(=O)N[C@@H](CC(N)=O)C(=O)N[C@@H](Cc1c[nH]c2ccccc12)C(=O)N[C@@H](Cc1ccccc1)C(N)=O` (Ac-YTSLIEELIKKSEEFQKKNEEELKKLEEWAKKWNWF-NH2), the EC50 in assay [1] worked out at 2.6 nM. Besides, in assay [2], the Activity turned out to be 5.3%. Also, the Tm in assay [3] came out at 64 °C.

The values are drawn from ChEMBL document CHEMBL3390848, “Affinity selection and sequence-activity relationships of HIV-1 membrane fusion inhibitors directed at the drug-resistant variants” (Medchemcomm, 2010).
